Results as given in paper PMC6768323, “Adverse Maternal, Fetal, and Postnatal Effects of Hexafluoropropylene Oxide Dimer Acid (GenX) from Oral Gestational Exposure in Sprague-Dawley Rats” (Environmental Health Perspectives, 2019).

Test system: fetal testis
Assay: Fetal testis custom gene array for phthalate-like effects
Format: in vivo, Sprague-Dawley rats
Conditions: 62.5-500 mg/kg/d
Method: For the first two blocks, spanning the full dose range, late gestation (GD18) dams were euthanized by decapitation at ∼2h after the final oral dose [ ∼0830–1000 hours Eastern Standard Time (EST)]. Trunk blood was collected and serum isolated via centrifugation ( 10,000×g for 15 min at 4°C) in vacutainer tubes, transferred to 1.5-mL microcentrifuge tubes and stored at −80°C . Dam liver weight was recorded and a sample of liver tissue was collected into a polypropylene microcentrifuge tube containing 500μL TRIzol Reagent (Invitrogen) on ice. Fetuses were removed and two randomly selected fetuses per litter were weighed. […] Ex vivo fetal testis testosterone production was measured as previously reported ([Wilson et al. 2004b]) except the radioimmunoassay (RIA) utilized here was supplied by ALPCO (Catalog No. 72-TESTO-CT2, ALPCO). […]
Gene expression in fetal testes and fetal/maternal livers was assessed using reverse transcriptase real-time PCR of cDNA synthesized from RNA extracted from sample homogenates. […] RNA concentration and purity (260:280 ratio ≥1.8 ) were determined with a NanoDrop 2000 spectrophotometer (Thermo Scientific). […] PCR reactions were run using RT2 SYBR Green quantitative PCR (qPCR) Master Mix (SABioscience) on an iCycler iQ Real-Time Detection System (Bio-Rad) for fetal testes and on a CFX96 Touch Real-Time Detection System (Bio-Rad) for maternal and fetal livers. […]

O=C(O)C(F)(OC(F)(F)C(F)(F)C(F)(F)F)C(F)(F)F (stereo not shown) [HFPO-DA, Hexafluoropropylene oxide dimer acid]
fetal testis gene expression versus controls: not significantly different from controls
